Measurements reported in patent US11577010B2, “Hemostatic devices and methods of use” (priority 2017, dated 2023).

How the values were obtained:
myofibroblast formation = conditions: Ajmal et al. (2003) Plast. Reconstr. Surg. 112:1455-1461; cited from earlier work
[1] = stability of rifampin and minocycline in PBS with and without tranexamic acid (Example 14); assay type: physicochemical; conditions: regardless of temperature (RT about 23° C. and 37° C.)
Method: The mixtures were tested both at room temperature (RT) (about 23° C.) and at 37° C.

[2] = in vitro elution of rifampin and minocycline from p22-27.5 polymers with TXA in release media (Example 15); assay type: physicochemical; conditions: PBS pH 7.4 without or with TXA 0.05 mg/mL or 5 mg/mL, over 25 hours
Method: B1=PBS pH 7.4; B2=PBS, pH 7.4+TXA (0.05 mg/mL); B3=PBS, pH 7.4+TXA (5 mg/mL).

blood [3] = assay: in vitro blood clotting time with different amounts of TXA in presence of TYRX (Example 17); assay type: biochemical; conditions: higher amounts of TXA (1.6 mg TXA vs 200 mg of TXA), in the presence of TYRX
Method: Tests were conducted to compare the time required to induce blood clotting in vitro when different amounts of hemostatic agent is administered in the presence of TYRX (degradable mesh coated with P22-27.5 containing rifampin and minocycline), as shown in FIG. 40. Clotting time was […] when higher amounts of TXA was present (1.6 mg TXA vs 200 mg of TXA), as shown below in FIG. 44.

blood [4] = assay: in vitro time required to induce blood clotting (Example 18); assay type: biochemical; conditions: 1.2 mg of TXA alone
Method: Tests were conducted to compare the time required for different hemostatic agents to induce blood clotting in vitro versus the time required to induce blood clotting in vitro when no hemostatic agent is administered. In particular, the time required to induce blood clotting was plotted for blood alone, a polymer in the p22-xx family (P22-27.5-TYRX), Surgicel, a polymer in the p22-xx family (P22-27.5-TYRX) with 1.6 mg of TXA, 1.2 mg of TXA alone and a polymer in the p22-xx family (P22-27.5-TYRX) with X mg of TXA.
Tests were conducted to compare the time required for different hemostatic agents to induce blood clotting in vitro versus the time required to induce blood clotting in vitro when no hemostatic agent is administered. In particular, the time required to induce blood clotting was plotted for blood alone, TYRX, Surgicel, TYRX with 1.6 mg of TXA, 1.2 mg of TXA alone and TYRX with 200 mg of TXA. In this example, TYRX refers to a Glycoprene mesh that is coated with P22-27.5 (a polymer in the P22-X family) containing Rifampin and Minocycline.

[5] = given preoperatively; cited from earlier work

In the case of `O=S(=O)([O-])CCS.[Na+]` [MESNA, sodium 2-mercaptoethane sulfonate], the myofibroblast formation (myofibroblast formation) is listed as “diminish myofibroblast formation”.

In the case of `CO[C@H]1/C=C/O[C@@]2(C)Oc3c(C)c(O)c4c(O)c(c(/C=N/N5CCN(C)CC5)c(O)c4c3C2=O)NC(=O)/C(C)=C\C=C\[C@H](C)[C@H](O)[C@@H](C)[C@@H](O)[C@@H](C)[C@H](OC(C)=O)[C@@H]1C` [rifampin], the “percentage area of rifampin, mixtures with vs without tranexamic acid” value [1] is reported as “substantially the same” and the “elution rates, effect of TXA in the release media” value [2] is reported as “not effected”.

In the case of `NC[C@H]1CC[C@H](C(=O)O)CC1` [tranexamic acid], the Clotting time (blood [3]) is given as “increased”, the “time to induce blood clotting” value (blood [4]) is given as “about 19 minutes” and the “time to reach plasma concentrations” value [5] is given as 5 to 15 min.
